In patent publication US11472846B2, “Compositions and methods for treating diseases by inhibiting exosome release” (priority 2016, dated 2022):

Key:
Type in all cases: cell-based, human
[1] = system: MDA-MB-231 breast cancer cells; assay: Exosome release by acetylcholinesterase (AchE) assay, MDA-MB-231; settings: for average AChE concentration day 1 to 5: MDA-MB-231 cells, five-day treatment
Description: (§1) 1-6. Exosome isolation and purification. Exosomes were isolated from breast cancer cells by differential centrifugation as previously described (Ali SA. et al., 2010). Untreated tumor cells were used as a control. Briefly, the above treated and untreated cell culture supernatants were centrifuged at 400×g for 10 minutes. The supernatants were transferred to a clear tube and centrifuged at 10,000×g for 30 minutes. The supernatants from the second spin were ultracentrifuged at 200,000×g for 2 hours to pellet exosomes. Finally, the exosome pellets were re-suspended with PBS and stored at 4° C. until used for analysis.
(§2) 1-7. Exosome characterization by acetylcholinesterase (AchE) assay. Purified exosomes were quantitated by measurement of AchE as described (Ellman et al., 1961). Briefly, a 100 mM dithibionitrobenzoic (DTNB) solution was prepared for use as a stock color indicator, and a 28.9 mg/mL acetylthiocholine iodide in PBS solution was prepared as a stock substrate. The stock substrate stock can be stored at −20° C. up to one month, while the color indicator can be stored at 4° C. for two weeks. A working solution was prepared by mixing 10 mL of PBS with 200 μL of Substrate and 500 μl of DTNB. 50 μL of each exosome sample was transferred to 96 well microtitre plates, and a standard curve was prepared using AchE from 0.98 mU/mL to 2000 mU/mL. After 50 μL of standards were added into separate wells, 200 μL of the working solution was added to all wells. After 20 min incubation, AchE activity was measured at 450 nm using a SpectroMax M5 fluorimeter.
(§3) 7-5. Exosome isolation and purification. Exosomes were isolated from breast cancer cells and leukemia cells using the ExoQuick-TC Exosome Precipitation Kit (System Biosciencences [SBI], Mountain View Calif.) or the miRCURY Exosome Isolation Kit (EXIQON, Woburn, Mass.) according to the manufacturer's instructions. Untreated tumor cells were used as a control. Briefly, treated and untreated cell culture supernatants (10 mL) were centrifuged at 3000×g for 15 minutes. The resulting supernatants were transferred to a clear tube, 2 mL of ExoQuick-TC buffer was added, mixed and incubated overnight at 4° C. Following the incubation, the sample contents were centrifuged at 1500×g for 30 minutes, the supernatants were aspirated off, the pellets were centrifuged at 1500×g for 5 minutes and any further traces of supernatant were removed (SBI). Alternatively, treated and untreated cell culture supernatants were centrifuged at 10,000×g for 5 minutes to remove cell debris, supernatants (10 ml) were transferred into new tubes, and 4 mL of precipitation buffer (EXIQON) was added, and the contents were mixed and incubated at 4° C. overnight. Following the incubation, the sample contents were centrifuged at 10,000×g for 30 minutes (EXIQON). Exosome-containing pellets were re-suspended in PBS and stored at 4° C. or −80° C.
(§4) 7-6. Exosome characterization by acetylcholinesterase (AchE) assay. Purified exosomes were quantitated by measurement of AchE as previously described (Huang et al., Oncotarget, 2017. 8(7): pp. 11302-11315). Briefly, 100 mM dithibionitrobenzoic (DTNB) was prepared as a stock color indicator, and prepared a stock substrate containing 28.9 mg/mL of acetylthiocholine iodide in PBS. Substrate stock can be stored at −20° C. up to one month; the stock color indicator can be stored at 4° C. for two weeks. A working solution was prepared by mixing 10 mL of PBS with 200 μL of substrate and 500 μl of DTNB. 50 μL of each exosome sample was transferred to a 96 well microtitre plate, and a standard curve for AchE concentrations was prepared using AchE from 0.98 mU/mL to 2000 mU/mL. After 50 μL of standards were added into separate wells, 200 μL of the working solution was added to each well. After a 20 min incubation, AchE activity was measured at 450 nm using a SpectroMax M5 fluorometer (FIG. 11).

[2] = system: MCF-7 breast cancer cells; assay: Exosome release by acetylcholinesterase (AchE) assay, MCF-7; settings: for average AChE concentration days 1 to 5: MCF-7 cells, five-day treatment
Description: as §1, §2, §3, §4

[3] = system: MCF-7 breast cancer cells; assay: Propidium iodide cell cycle analysis (Cellometer), MCF-7; settings: MCF-7 cells, 48 hours, 1.12 μM/mL peptide
Description: 1-4. Cell cycle analysis. MCF-7 and MDA-MB-231 breast cancer cells were cultured into 6-well plates at 4×10^5 cells per well and treated with either paclitaxel and cisplatin or combined with PEG-SMRwt-CLU peptide for 24 and 48 hours. Cell cycle analysis was performed using a propidium iodide cell cycle assay and measured using a Cellometer (Nexcelom, MA). […] Breast cancer cells were seeded into 96-well plates at 5×10^3 cells/ml, and treated with either 1.6 μM//mL of paclitaxel, or 3 mg/mL cisplatin, 1.12 μM/mL PEG-SMRwt-CLU peptide, SMR peptide combined with paclitaxel or with cisplatin (MCF-7 cells). Alternatively 1.6 μM/mL paclitaxel or 2 mg/mL cisplatin or 0.28 μM/mL of PEG-SMR-CLU peptide, or the peptide combined with each of these drugs was used for MDA-MB-231 cells. The concentrations for cisplatin and paclitaxel were experimentally determined IC50 dosages for the different cell types (data not shown). At the end of the 24 hr or 48 hr incubations, the cells were assessed by the Cellometry imaging cytometry assay.
All above steps were done on MCF-7 and MDA-MB-231 cells separately. […]

In the case of “NXNVGFPVAAVGFPVHPLSKHPYWSQP (SEQ ID NO: 37) [PEG-SMRwt-Clu]”, the “AchE activity in exosomes” value ([1]; MDA-MB-231 cells treated 48 hr, control exosomes 118.48 mU/mL) is reported as 66.77 mU/mL, the “average AChE concentration day 1 to 5” value [1] is reported as 42 mU/mL and the “AchE activity in exosomes” value ([2]; MCF-7 cells treated 48 hr, control exosomes 113.49 mU/mL) is reported as 41.95 mU/mL. The “average AChE concentration days 1 to 5” value [2] was 31 mU/mL and the cell cycle effect [3] was “induced cell cycle arrest”.
For VGFPVAAVGFPVGRKKRRQRRRPPQ [SMRwt-CPP], the “average AChE concentration day 1 to 5” value [1] was 29 mU/mL and the “average AChE concentration days 1 to 5” value [2] was 22 mU/mL.
